ChEMBL document CHEMBL4622905, “Synthesis and antifungal activity of new hybrids pyrimido[4,5-d]pyridazinone-N-acylhydrazones” (Bioorg Med Chem Lett, 2020)
In brackets after ≈: the same amount, converted by molar mass. Activity calls are given as the source filed them. The calls are words filed in the database; no cut-off is given here.

What was measured:
[1] = tested on: Paracoccidioides brasiliensis; experiment: Antifungal activity against Paracoccidioides brasiliensis Pb18; assay type: functional
[2] = tested on: Paracoccidioides brasiliensis; experiment: Fungicidal activity against Paracoccidioides brasiliensis Pb18; assay type: functional
[3] = tested on: Paracoccidioides brasiliensis; experiment: Antifungal activity against Paracoccidioides brasiliensis Pb18 in presence of amphotericin B; assay type: functional
[4] = tested on: Paracoccidioides brasiliensis; experiment: Antifungal activity against Paracoccidioides brasiliensis Pb18 in presence of 0.01 ug/ml amphotericin B; assay type: functional
[5] = tested on: Paracoccidioides brasiliensis; experiment: Synergistic antifungal activity against Paracoccidioides brasiliensis Pb18 assessed as fractional inhibitory concentration in presence of amphotericin B; assay type: functional
HeLa = experiment: Cytotoxicity against human HeLa cells at 512 ug/ml; assay type: cell-based
Vero = experiment: Cytotoxicity against monkey Vero cells at 512 ug/ml; assay type: cell-based; details: chlorocebus sabaeus
[6] = Selectivity index, ratio for cytotoxicity for human HeLa cells to MIC for Paracoccidioides brasiliensis Pb18; assay type: toxicity, cell-based
[7] = Selectivity index, ratio for cytotoxicity for monkey Vero cells to MIC for Paracoccidioides brasiliensis Pb18; assay type: toxicity, cell-based
Candida albicans = experiment: Antifungal activity against Candida albicans; assay type: functional
Candida tropicalis = experiment: Antifungal activity against Candida tropicalis; assay type: functional
[8] = tested on: Paracoccidioides brasiliensis; experiment: Antifungal activity against Paracoccidioides brasiliensis Pb18 in presence of 0.06 ug/ml amphotericin B; assay type: functional
Candida = experiment: Antifungal activity against Candida; assay type: functional, organism-based
[9] = tested on: Paracoccidioides brasiliensis; experiment: Antifungal activity against Paracoccidioides brasiliensis Pb18 in presence of 0.125 ug/ml amphotericin B; assay type: functional
[10] = tested on: Paracoccidioides brasiliensis; experiment: Antifungal activity against Paracoccidioides brasiliensis Pb18 in presence of 0.25 ug/ml amphotericin B; assay type: functional
Nakaseomyces glabratus = experiment: Antifungal activity against Candida glabrata; assay type: functional

Compound | MIC [1] | MFC [2] | MIC [3] | FIC [5] | Activity (HeLa) | Activity (Vero) | selectivity ratio [6] | selectivity ratio [7] | Activity (Candida) | also measured
O=C(N/N=C/c1ccc([N+](=O)[O-])cc1)c1n[nH]c(=O)c2nc(-c3ccccc3)ncc12 | > 256 µg/mL | – | – | – | – | – | – | – | – | –
C[C@@H]1[C@H](O)[C@@H](C)/C=C/C=C/C=C/C=C/C=C/C=C/C=C/[C@H](O[C@@H]2O[C@H](C)[C@@H](O)[C@H](N)[C@@H]2O)C[C@@H]2O[C@](O)(C[C@@H](O)C[C@@H](O)[C@H](O)CC[C@@H](O)C[C@@H](O)CC(=O)O[C@H]1C)C[C@H](O)[C@H]2C(=O)O [AMPHOTERICIN B] | 1 µg/mL (≈ 1.08 µM) | 1 µg/mL (≈ 1.08 µM) | – | – | – | – | – | – | – | –
O=C(N/N=C/c1cccc([N+](=O)[O-])c1)c1n[nH]c(=O)c2nc(-c3ccccc3)ncc12 | > 256 µg/mL | – | – | – | – | – | – | – | – | –
O=C(N/N=C/c1ccccc1)c1n[nH]c(=O)c2nc(-c3ccccc3)ncc12 | 0.125 µg/mL (≈ 0.337 µM) | 0.5 µg/mL (≈ 1.35 µM) | 0.031 µg/mL | 0.134 | > 80% | > 80% | 13 | 13 | – | MIC [4]: 1 µg/mL; MIC (Candida albicans): 4 µg/mL (≈ 10.8 µM); MIC (Candida tropicalis): 8 µg/mL (≈ 21.6 µM)
O=C(N/N=C/c1ccc(O)cc1)c1n[nH]c(=O)c2nc(-c3ccccc3)ncc12 | 32 µg/mL (≈ 82.8 µM) | 32 µg/mL (≈ 82.8 µM) | 16 µg/mL | 0.37 | > 80% | > 80% | 5 | 5 | inactive | MIC [8]: 0.5 µg/mL
COc1cc(/C=N/NC(=O)c2n[nH]c(=O)c3nc(-c4ccccc4)ncc23)cc(OC)c1O | 64 µg/mL (≈ 143 µM) | 64 µg/mL (≈ 143 µM) | 16 µg/mL | 0.75 | > 80% | > 80% | 4 | 4 | inactive | MIC [9]: 0.5 µg/mL
CCC(C)n1ncn(-c2ccc(N3CCN(c4ccc(OCC5COC(Cn6cncn6)(c6ccc(Cl)cc6Cl)O5)cc4)CC3)cc2)c1=O (stereo not drawn) [ITRACONAZOLE] | 1 µg/mL (≈ 1.42 µM) | – | – | – | – | – | – | – | – | –
COc1ccc(/C=N/NC(=O)c2n[nH]c(=O)c3nc(-c4ccccc4)ncc23)cc1OC | 64 µg/mL (≈ 149 µM) | 64 µg/mL (≈ 149 µM) | 16 µg/mL | 0.625 | > 80% | > 80% | 4 | 4 | inactive | MIC [10]: 0.5 µg/mL
O=C(N/N=C/c1ccccn1)c1n[nH]c(=O)c2nc(-c3ccccc3)ncc12 | > 256 µg/mL | – | – | – | – | – | – | – | – | –
O=C(N/N=C/c1cc(Cl)ccc1O)c1n[nH]c(=O)c2nc(-c3ccccc3)ncc12 | 64 µg/mL (≈ 152 µM) | 64 µg/mL (≈ 152 µM) | 4 µg/mL | 0.245 | > 80% | > 80% | 4 | 4 | – | MIC [8]: 0.5 µg/mL; MIC (Nakaseomyces glabratus): 4 µg/mL (≈ 9.51 µM)
O=C(N/N=C/c1ccc(F)cc1)c1n[nH]c(=O)c2nc(-c3ccccc3)ncc12 | 32 µg/mL (≈ 82.4 µM) | 32 µg/mL (≈ 82.4 µM) | 8 µg/mL | 0.625 | > 80% | > 80% | 5 | 5 | inactive | MIC [10]: 0.5 µg/mL
CN(C)c1ccc(/C=N/NC(=O)c2n[nH]c(=O)c3nc(-c4ccccc4)ncc23)cc1 | > 256 µg/mL | – | – | – | – | – | – | – | – | –
O=C(N/N=C/c1cccs1)c1n[nH]c(=O)c2nc(-c3ccccc3)ncc12 | > 256 µg/mL | – | – | – | – | – | – | – | – | –
COc1ccc(/C=N/NC(=O)c2n[nH]c(=O)c3nc(-c4ccccc4)ncc23)cc1 | > 256 µg/mL | – | – | – | – | – | – | – | – | –
COc1cc(/C=N/NC(=O)c2n[nH]c(=O)c3nc(-c4ccccc4)ncc23)ccc1O | > 256 µg/mL | – | – | – | – | – | – | – | – | –
O=C(N/N=C/c1ccccc1O)c1n[nH]c(=O)c2nc(-c3ccccc3)ncc12 | 128 µg/mL (≈ 331 µM) | 128 µg/mL (≈ 331 µM) | 8 µg/mL | 0.625 | > 80% | > 80% | 3 | 3 | inactive | MIC [9]: 0.25 µg/mL
NNC(=O)c1n[nH]c(=O)c2nc(-c3ccccc3)ncc12 | > 256 µg/mL | – | – | – | – | – | – | – | – | –
O=C(N/N=C/c1ccc(-c2cccs2)s1)c1n[nH]c(=O)c2nc(-c3ccccc3)ncc12 | > 256 µg/mL | – | – | – | – | – | – | – | – | –
O=C(N/N=C/c1cc([N+](=O)[O-])ccc1O)c1n[nH]c(=O)c2nc(-c3ccccc3)ncc12 | 128 µg/mL (≈ 297 µM) | 128 µg/mL (≈ 297 µM) | 8 µg/mL | 0.625 | > 80% | > 80% | 3 | 3 | inactive | MIC [9]: 0.25 µg/mL
